# Test results: US12692269B2, “Therapeutic compounds” (Genentech, Inc., priority 2019, dated 2026)
# Columns and labels:
# Assay type in all cases: binding
# TEAD4 YAP50-100 = TEAD4 YAP50-100 (Homo sapiens, UniProt Q15561); assay: TEAD4-YAP HTRF (TR-FRET) protein-protein interaction assay; conditions: TEAD4, YAP peptide 50-100, HTRF; for EC50: read-out: TEAD4 YAP50-100 HTRF combined: EC50
# Outline: (§1)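 TEAD YBD (aa 217-447, His-tag) + Eu anti-His; cpd 30 min; + biotin-YAP 50-100 or biotin-TAZ 13-57 / SA-XL665; 60 min RT; TR-FRET 665/615; 4-parameter IC50/EC50.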
# TEAD3 YAP50-100 = TEAD3 YAP50-100 (Homo sapiens, UniProt Q99594); assay: TEAD3-YAP HTRF (TR-FRET) protein-protein interaction assay; conditions: TEAD3, YAP peptide 50-100, HTRF; for EC50: read-out: TEAD3 YAP50-100 HTRF combined: EC50
# Chain of TEAD3 YAP50-100 (Q99594 173-435 limits assumed): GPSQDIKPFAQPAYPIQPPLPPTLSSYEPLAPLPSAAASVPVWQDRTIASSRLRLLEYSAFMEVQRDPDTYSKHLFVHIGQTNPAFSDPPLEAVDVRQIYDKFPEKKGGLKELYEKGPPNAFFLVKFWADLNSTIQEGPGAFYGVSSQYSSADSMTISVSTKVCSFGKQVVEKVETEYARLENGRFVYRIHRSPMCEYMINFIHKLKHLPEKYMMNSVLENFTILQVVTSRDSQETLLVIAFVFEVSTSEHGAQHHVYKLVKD
# Outline: as §1
# [1] = biological target: TEAD1 TAZ (amino acids 13-57) (Homo sapiens, UniProt P28347); assay: TEAD1-TAZ HTRF (TR-FRET) protein-protein interaction assay; conditions: for TEAD1 TAZ HTRF combined: Max % Inhibition: TEAD1, TAZ peptide; for EC50: TEAD1-TAZ HTRF, TR-FRET 665 nm/615 nm, read-out: TEAD1 TAZ HTRF combined: EC50
# Chain of TEAD1 TAZ (amino acids 13-57) (P28347 167-426 limits assumed): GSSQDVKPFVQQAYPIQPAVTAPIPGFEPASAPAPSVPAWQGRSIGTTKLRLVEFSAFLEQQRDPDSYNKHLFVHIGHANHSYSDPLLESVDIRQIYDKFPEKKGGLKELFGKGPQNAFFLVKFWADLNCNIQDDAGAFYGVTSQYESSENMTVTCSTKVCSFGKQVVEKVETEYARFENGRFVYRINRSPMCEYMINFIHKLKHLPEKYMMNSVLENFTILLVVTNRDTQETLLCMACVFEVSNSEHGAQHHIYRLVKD
# Outline: as §1
# [2] = biological target: TEAD3 TAZ (amino acids 13-57) (Homo sapiens, UniProt Q99594); assay: TEAD3-TAZ HTRF (TR-FRET) protein-protein interaction assay; conditions: for TEAD3 TAZ HTRF combined: Max % Inhibition: TEAD3, TAZ peptide; for EC50: TEAD3-TAZ HTRF, TR-FRET 665 nm/615 nm, read-out: TEAD3 TAZ HTRF combined: EC50
# Chain of TEAD3 TAZ (amino acids 13-57) (Q99594 173-435 limits assumed): as the sequence (Q99594 173-435 limits assumed) above
# Outline: as §1
# [3] = biological target: TEAD2 TAZ (amino acids 13-57) (Homo sapiens, UniProt Q15562); assay: TEAD2-TAZ HTRF (TR-FRET) protein-protein interaction assay; conditions: for TEAD2 TAZ HTRF combined: Max % Inhibition: TEAD2, TAZ peptide; for EC50: TEAD2-TAZ HTRF, TR-FRET 665 nm/615 nm, read-out: TEAD2 TAZ HTRF combined: EC50
# Chain of TEAD2 TAZ (amino acids 13-57) (Q15562 217-447): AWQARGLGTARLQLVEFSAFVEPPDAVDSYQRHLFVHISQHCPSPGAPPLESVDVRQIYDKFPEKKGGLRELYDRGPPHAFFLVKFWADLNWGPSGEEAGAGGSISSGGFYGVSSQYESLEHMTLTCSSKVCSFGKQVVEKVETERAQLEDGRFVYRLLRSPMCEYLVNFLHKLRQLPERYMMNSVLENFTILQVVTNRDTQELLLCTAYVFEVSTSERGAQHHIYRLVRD
# Outline: as §1
# TEAD1 YAP50-100 = TEAD1 YAP50-100 (Homo sapiens, UniProt P28347); assay: TEAD1-YAP HTRF (TR-FRET) protein-protein interaction assay; conditions: TEAD1, YAP peptide 50-100, HTRF; for EC50: read-out: TEAD1 YAP50-100 HTRF combined: EC50
# Chain of TEAD1 YAP50-100 (P28347 167-426 limits assumed): as the sequence (P28347 167-426 limits assumed) above
# Outline: as §1
# TEAD2 YAP50-100 = TEAD2 YAP50-100 (Homo sapiens, UniProt Q15562); assay: TEAD2-YAP HTRF (TR-FRET) protein-protein interaction assay; conditions: TEAD2, YAP peptide 50-100, HTRF; for EC50: read-out: TEAD2 YAP50-100 HTRF combined: EC50
# Chain of TEAD2 YAP50-100 (Q15562 217-447): as the sequence (Q15562 217-447) above
# Outline: as §1
# [4] = biological target: TEAD4 TAZ (amino acids 13-57) (Homo sapiens, UniProt Q15561); assay: TEAD4-TAZ HTRF (TR-FRET) protein-protein interaction assay; conditions: for TEAD4 TAZ HTRF combined: Max % Inhibition: TEAD4, TAZ peptide; for EC50: TEAD4-TAZ HTRF, TR-FRET 665 nm/615 nm, read-out: TEAD4 TAZ HTRF combined: EC50
# Chain of TEAD4 TAZ (amino acids 13-57) (Q15561 217-434 limits assumed): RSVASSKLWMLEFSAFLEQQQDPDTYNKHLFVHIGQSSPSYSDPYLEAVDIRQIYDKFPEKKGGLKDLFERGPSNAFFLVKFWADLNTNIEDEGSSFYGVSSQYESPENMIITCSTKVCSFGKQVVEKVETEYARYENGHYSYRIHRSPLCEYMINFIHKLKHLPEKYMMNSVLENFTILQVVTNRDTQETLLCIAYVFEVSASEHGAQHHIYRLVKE
# Outline: as §1
# Chain of TEAD4 YAP50-100 (Q15561 217-434 limits assumed): as above
SMILES,TEAD4 YAP50-100 HTRF combined: Max % Inhibition (TEAD4 YAP50-100) [%],EC50 (TEAD4 YAP50-100) [nM],TEAD3 YAP50-100 HTRF combined: Max % Inhibition (TEAD3 YAP50-100) [%],EC50 (TEAD3 YAP50-100) [nM],TEAD1 TAZ HTRF combined: Max % Inhibition [1] [%],EC50 [1] [nM],TEAD3 TAZ HTRF combined: Max % Inhibition [2] [%],EC50 [2] [nM],TEAD2 TAZ HTRF combined: Max % Inhibition [3] [%],EC50 [3] [nM],TEAD1 YAP50-100 HTRF combined: Max % Inhibition (TEAD1 YAP50-100) [%],EC50 (TEAD1 YAP50-100) [nM],TEAD2 YAP50-100 HTRF combined: Max % Inhibition (TEAD2 YAP50-100) [%],EC50 (TEAD2 YAP50-100) [nM],TEAD4 TAZ HTRF combined: Max % Inhibition [4] [%],EC50 [4] [nM]
"Cc1nccnc1-c1nn2c(=O)cc(-c3ccc(C4CCCCC4)cc3)[nH]c2c1C(=O)N(C)C [Compound 20, 5-(4-Cyclohexylphenyl)-N,N-dimethyl-2-(3-methylpyrazin-2-yl)-7-oxo-4,7-dihydropyrazolo[1,5-a]pyrimidine-3-carboxamide]",37.0,820,65.5,50,63.0,50,56.5,70,50.5,20,72.0,50,53.5,20,34.5,940
"Cc1nccnc1-c1nn2c(=O)cc(-c3ccc(C4CCCCC4)c(F)c3)[nH]c2c1C(=O)N1CC(CF)C1 [Compound 21, 5-(4-cyclohexyl-3-fluorophenyl)-3-(3-(fluoromethyl)azetidine-1-carbonyl)-2-(3-methylpyrazin-2-yl)pyrazolo[1,5-a]pyrimidin-7(4H)-one]",49.5,30,69.5,80,71.5,40,69.5,90,61.5,10,74.0,40,62.5,10,51.0,30
"O=C(c1c(-c2ncccn2)nn2c(=O)cc(-c3ccc(CC4CCCC4)cc3)[nH]c12)N1CC(CF)C1 [Compound 24, 5-(4-(Cyclopentylmethyl)phenyl)-3-(3-(fluoromethyl)azetidine-1-carbonyl)-2-(pyrimidin-2-yl) pyrazolo[1,5-a]pyrimidin-7(4H)-one]",51.0,10,52.0,20,57.0,20,43.0,30,66.5,–,63.0,20,66.0,–,54.0,10
"O=C(c1c(-c2cnccn2)nn2c(=O)cc(-c3ccc(CC4CCCC4)cc3)[nH]c12)N1CC(CF)C1 [Compound 25, 5-(4-(Cyclopentylmethyl)phenyl)-3-(3-(fluoromethyl)azetidine-1-carbonyl)-2-(pyrazin-2-yl)pyrazolo[1,5-a]pyrimidin-7(4H)-one]",45.5,20,50.0,40,52.0,40,44.0,40,62.0,10,60.0,30,63.5,10,47.0,20
"Cc1cnc(-c2nn3c(=O)cc(-c4ccc(C5CCCCC5)cc4)[nH]c3c2C(=O)N2CC(CF)C2)cn1 [Compound 26, 5-(4-Cyclohexylphenyl)-3-(3-(fluoromethyl)azetidine-1-carbonyl)-2-(5-methylpyrazin-2-yl) pyrazolo [1,5-a]pyrimidin-7(4H)-one]",44.5,340,66.0,140,70.0,100,60.0,150,72.5,30,71.0,60,70.0,30,45.5,290
"Cc1nccnc1-c1nn2c(=O)cc(-c3ccc(C4CCCCC4)cc3)[nH]c2c1C(=O)N1CC(CF)C1 [Compound 27, 5-(4-Cyclohexylphenyl)-3-(3-(fluoromethyl)azetidine-1-carbonyl)-2-(3-methylpyrazin-2-yl)pyrazolo[1,5-a]pyrimidin-7(4H)-one]",54.1,30,74.6,100,74.5,50,64.9,100,67.9,10,75.0,30,68.6,10,53.1,30

# Second part, the compound after the results:
TEAD4 YAP50-100 HTRF combined: Max % Inhibition (TEAD4 YAP50-100) [%],EC50 (TEAD4 YAP50-100) [nM],TEAD3 YAP50-100 HTRF combined: Max % Inhibition (TEAD3 YAP50-100) [%],EC50 (TEAD3 YAP50-100) [nM],TEAD1 TAZ HTRF combined: Max % Inhibition [1] [%],EC50 [1] [nM],TEAD3 TAZ HTRF combined: Max % Inhibition [2] [%],EC50 [2] [nM],TEAD2 TAZ HTRF combined: Max % Inhibition [3] [%],EC50 [3] [nM],TEAD1 YAP50-100 HTRF combined: Max % Inhibition (TEAD1 YAP50-100) [%],EC50 (TEAD1 YAP50-100) [nM],TEAD2 YAP50-100 HTRF combined: Max % Inhibition (TEAD2 YAP50-100) [%],EC50 (TEAD2 YAP50-100) [nM],TEAD4 TAZ HTRF combined: Max % Inhibition [4] [%],EC50 [4] [nM],SMILES
45.5,70,60.0,210,64.0,110,57.0,210,57.5,20,69.0,140,58.0,20,48.0,60,"O=C(c1c(-c2ncccn2)nn2c(=O)cc(-c3ccc(C4CCCCC4)c(F)c3)[nH]c12)N1CC(CF)C1 [Compound 22, 5-(4-Cyclohexyl-3-fluorophenyl)-3-(3-(fluoromethyl)azetidine-1-carbonyl)-2-(pyrimidin-2-yl)pyrazolo[1,5-a]pyrimidin-7(4H)-one]"
39.5,50,64.0,110,61.5,70,56.5,110,55.5,10,70.0,40,55.5,10,35.0,50,"O=C(c1c(-c2cnccn2)nn2c(=O)cc(-c3ccc(C4CCCCC4)c(F)c3)[nH]c12)N1CC(CF)C1 [Compound 23, 5-(4-Cyclohexyl-3-fluorophenyl)-3-(3-(fluoromethyl)azetidine-1-carbonyl)-2-(pyrazin-2-yl)pyrazolo[1,5-a]pyrimidin-7(4H)-one]"
43.5,130,68.0,100,74.0,60,63.0,100,66.5,10,76.0,40,59.5,20,41.0,120,"Cc1cncc(-c2nn3c(=O)cc(-c4ccc(C5CCCCC5)cc4)[nH]c3c2C(=O)N2CC(CF)C2)n1 [Compound 28, 5-(4-Cyclohexylphenyl)-3-(3-(fluoromethyl)azetidine-1-carbonyl)-2-(6-methylpyrazin-2-yl)pyrazolo[1,5-a]pyrimidin-7(4H)-one]"
